Like-named read-outs stand apart in the source and are kept apart here.
Experiments:
[1] = target: Human α2δ-1 subunit of Cav2.2 calcium channel (Homo sapiens (Human), UniProt P54289); experiment: Binding Assay to Human α2δ-1 Subunit of Cav2.2 Calcium Channel; conditions: human α2δ-1 enriched membranes, 15 nM [3H]-Gabapentin, read-out: Ki(nM) alpha2delta Hum
Protocol: Binding Assay to Human α2δ-1 Subunit of Cav2.2 Calcium Channel.
(§1) NSB (non specific binding) was measured by adding 10 μM pregabalin. The binding of the test compound was measured in five different concentrations. After 60 min incubation at 27° C., binding reaction was terminated by filtering through Multiscreen GF/C (Millipore) presoaked in 0.5% polyethyleneimine in Vacuum Manifold Station, followed by 3 washes with ice-cold filtration buffer containing 50 mM Tris-HCl, pH 7.4.
(§2) Filter plates were dried at 60° C. for 1 hour and 30 μl of scintillation cocktail were added to each well before radioactivity reading.

[2] = target: Human norepinephrine transporter (NET) (Homo sapiens (Human), UniProt P23975); experiment: Binding Assay to Human Norepinephrine Transporter (NET); conditions: Table 2, dual compounds; human NET enriched membranes, 5 nM [3H]-Nisoxetin; read-out: Ki(nM) NET Hum
Protocol: Binding Assay to Human Norepinephrine Transporter (NET).
Human norepinephrine transporter (NET) enriched membranes (5 μg) were incubated with 5 nM of radiolabeled [3H]-Nisoxetin in assay buffer containing 50 mM Tris-HCl, 120 mM NaCl, 5 mM KCl, pH 7.4.
as §1, with “desipramine.” for “pregabalin.”, “4°” for “27°”, “Tris-HCl, 0.9% NaCl,” for “Tris-HCl,”
as §2

Sequence of Human α2δ-1 subunit of Cav2.2 calcium channel (P54289 25-1103): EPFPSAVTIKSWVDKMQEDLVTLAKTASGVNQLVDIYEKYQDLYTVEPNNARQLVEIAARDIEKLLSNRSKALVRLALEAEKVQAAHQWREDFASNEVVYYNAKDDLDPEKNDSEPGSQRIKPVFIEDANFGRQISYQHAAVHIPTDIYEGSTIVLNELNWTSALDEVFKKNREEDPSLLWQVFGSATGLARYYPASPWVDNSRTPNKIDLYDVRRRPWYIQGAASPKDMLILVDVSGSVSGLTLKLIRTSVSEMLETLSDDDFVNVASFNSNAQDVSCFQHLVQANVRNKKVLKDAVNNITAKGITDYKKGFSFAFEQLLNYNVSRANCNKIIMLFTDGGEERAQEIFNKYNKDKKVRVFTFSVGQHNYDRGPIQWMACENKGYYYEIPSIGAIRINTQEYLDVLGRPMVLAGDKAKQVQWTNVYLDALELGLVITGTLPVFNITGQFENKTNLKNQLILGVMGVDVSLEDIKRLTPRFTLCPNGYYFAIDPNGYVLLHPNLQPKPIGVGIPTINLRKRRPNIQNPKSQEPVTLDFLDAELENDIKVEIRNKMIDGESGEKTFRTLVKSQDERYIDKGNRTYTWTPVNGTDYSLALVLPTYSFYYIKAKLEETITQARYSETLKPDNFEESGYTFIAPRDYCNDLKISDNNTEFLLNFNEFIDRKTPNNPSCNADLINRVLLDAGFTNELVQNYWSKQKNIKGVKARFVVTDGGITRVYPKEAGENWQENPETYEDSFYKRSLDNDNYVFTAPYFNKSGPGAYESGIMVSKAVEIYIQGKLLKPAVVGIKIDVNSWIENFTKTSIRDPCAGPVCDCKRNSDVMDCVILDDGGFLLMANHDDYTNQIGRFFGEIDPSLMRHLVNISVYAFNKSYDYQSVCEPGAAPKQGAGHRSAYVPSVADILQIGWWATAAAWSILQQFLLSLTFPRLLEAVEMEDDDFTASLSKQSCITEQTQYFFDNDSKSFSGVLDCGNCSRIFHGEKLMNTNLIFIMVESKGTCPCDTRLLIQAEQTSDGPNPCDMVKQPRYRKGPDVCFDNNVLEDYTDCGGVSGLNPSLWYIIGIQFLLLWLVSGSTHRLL
Sequence of Human norepinephrine transporter (NET) (P23975 whole entry): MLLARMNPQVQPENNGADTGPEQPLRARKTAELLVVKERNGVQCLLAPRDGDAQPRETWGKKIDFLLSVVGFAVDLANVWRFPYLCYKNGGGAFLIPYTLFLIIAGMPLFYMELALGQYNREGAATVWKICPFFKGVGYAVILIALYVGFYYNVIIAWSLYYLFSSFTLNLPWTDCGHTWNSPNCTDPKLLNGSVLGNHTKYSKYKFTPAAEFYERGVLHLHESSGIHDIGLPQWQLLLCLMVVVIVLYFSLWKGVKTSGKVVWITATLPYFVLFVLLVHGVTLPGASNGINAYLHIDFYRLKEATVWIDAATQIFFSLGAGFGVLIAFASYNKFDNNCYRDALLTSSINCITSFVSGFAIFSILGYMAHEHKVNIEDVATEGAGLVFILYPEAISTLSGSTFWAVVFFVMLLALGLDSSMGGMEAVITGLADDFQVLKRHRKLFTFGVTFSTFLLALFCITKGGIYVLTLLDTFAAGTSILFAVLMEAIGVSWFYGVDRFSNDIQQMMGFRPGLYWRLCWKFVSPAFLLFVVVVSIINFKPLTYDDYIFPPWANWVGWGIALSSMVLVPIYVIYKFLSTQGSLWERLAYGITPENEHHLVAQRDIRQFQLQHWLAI

Ki ([1]; Table 1) | Ki ([1]; Table 2, dual compounds) | Ki [2] | Structure (SMILES)
100 to 500 nM | 100 to 500 nM | 100 to 500 nM | CNCCC(Oc1cccc(N2CCN(C(C)C)CCC2=O)c1)c1ccsc1 (centres unmarked) [Example 75, 1-Isopropyl-4-(3-(3-(methylamino)-1-(thiophen-3-yl)propoxy)phenyl)-1,4-diazepan-5-one]
500 to 3000 nM | 500 to 3000 nM | < 100 nM | CNCC[C@@H](Oc1cccc(N2CCN(C(C)C)CCC2=O)c1)c1ccsc1 [Example 76, (R)-1-isopropyl-4-(3-(3-(methylamino)-1-(thiophen-3-yl)propoxy)phenyl)-1,4-diazepan-5-one]
100 to 500 nM | 100 to 500 nM | 100 to 500 nM | CNCC[C@H](Oc1cccc(N2CCN(C(C)C)CCC2=O)c1)c1ccsc1 [Example 77, (S)-1-isopropyl-4-(3-(3-(methylamino)-1-(thiophen-3-yl)propoxy)phenyl)-1,4-diazepan-5-one]
100 to 500 nM | 100 to 500 nM | 100 to 500 nM | CNCCC(Oc1cccc(N2CCN(C)c3nc(C)ccc3C2=O)c1)c1ccsc1 (centres unmarked) [Example 78, 1,8-Dimethyl-4-(3-(3-(methylamino)-1-(thiophen-3-yl)propoxy)phenyl)-1,2.3,4-tetrahydro-5H-pyrido[2,3-e][1,4]diazepin-5-one]
100 to 500 nM | 100 to 500 nM | < 100 nM | CNCC[C@H](Oc1cccc(N2CCN(C)c3nc(C)ccc3C2=O)c1)c1ccsc1 [Example 80, (S)-1,8-dimethyl-4-(3-(3-(methylamino)-1-(thiophen-3-yl)propoxy)phenyl)-1,2,3,4-tetrahydro-5H-pyrido[2,3-e][1,4]diazepin-5-one]
100 to 500 nM | 100 to 500 nM | 500 to 1000 nM | CNCC[C@H](Oc1cccc(N2CCN(C)c3nc(C(F)(F)F)ccc3C2=O)c1)c1cccs1 [Example 81, (S)-1-methyl-4-(3-(3-(methylamino)-1-(thiophen-2-yl)propoxy)phenyl)-8-(trifiuoromethyl)-1.2.3,4-tetrahydro-5H-pyrido[2.3-e][1,4]diazepin-5-one]
100 to 500 nM | 100 to 500 nM | 100 to 500 nM | CNCC[C@H](Oc1cccc(N2CCN(C)c3nc(N)ccc3C2=O)c1)c1cccs1 [Example 83, (S)-8-amino-1-methyl-4-(3-(3-(methylamino)-1-(thiophen-2-yl)propoxy)phenyl)-1,2,3,4-tetrahydro-5H-pyrido[2,3-e][1,4]diazepin-5-one]
500 to 3000 nM | 500 to 3000 nM | 100 to 500 nM | CNCCC(OCc1cccc(N2CCN(C)CCC2=O)c1)c1cccs1 (centres unmarked) [Example 84, 1-Methyl-4-(3-((3-(methylamino)-1-(thiophen-2-yl)propoxy)methyl)phenyl)-1,4-diazepan-5-one]
500 to 3000 nM | 500 to 3000 nM | 100 to 500 nM | CCNC[C@H]1CC(=O)N(c2cccc(O[C@@H](CCNC)c3cccs3)c2)CCN1C [Example 86, (R)-7-((ethylamino)methyl)-1-methyl-4-(3-((S)-3-(methylamino)-1-(thiophen-2-yl)propoxy)phenyl)-1,4-diazepan-5-one]
< 100 nM | < 100 nM | 100 to 500 nM | CNCC[C@H](Oc1ccc(CN2CCN(C)c3ncccc3C2=O)cc1)c1cccs1 [Example 90, (S)-1-methyl-4-(4-(3-(methylamino)-1-(thiophen-2-yl)propoxy)benzyl)-1,2,3,4-tetrahydro-5H-pyrido[2,3-e][1,4]diazepin-5-one]
100 to 500 nM | 100 to 500 nM | 100 to 500 nM | CNCC[C@H](Oc1ccc(CN2CCN(C)c3nc(C)ccc3C2=O)cc1)c1cccs1 [Example 91, (S)-1,8-dimethyl-4-(4-(3-(methylamino)-1-(thiophen-2-yl)propoxy)benzyl)-1,2,3,4-tetrahydro-5H-pyrido[2,3-e][1,4]diazepin-5-one]
500 to 3000 nM | – | – | CNCC[C@@H](Oc1ccc(CN2CCN(C)c3ncccc3C2=O)c(F)c1)c1cccc(F)c1 [Example 135, (R)-4-(2-fluoro-4-(1-(3-fiuorophenyl)-3-(methylamino)propoxy)benzyl)-1-methyl-1,2,3,4-tetrahydro-5H-pyrido[2,3-e][1,4]diazepin-5-one]
> 3000 nM | – | – | CNCC[C@H](Oc1ccc(CN2CCN(C)c3c(ccnc3OC)C2=O)c(F)c1)c1ccccc1 [Example 146, (S)-4-(2-fluoro-4-(3-(methylamino)-1-phenylpropoxy)benzyl)-9-methoxy-1-methyl-1,2,3,4-tetrahydro-5H-pyrido[3,4-e][1,4]diazepin-5-one]
> 3000 nM | – | – | CCNc1ccc2c(n1)N(C)CCN(Cc1ccc(O[C@H](CCNC)c3cccc(F)c3)cc1F)C2=O [Example 147, (R)-8-(ethylamino)-4-(2-fluoro-4-(1-(3-fluorophenyl)-3-(methylamino)propoxy)benzyl)-1-methyl-1,2,3,4-tetrahydro-5H-pyrido[2,3-e][1,4]diazepin-5-one]
500 to 3000 nM | 500 to 3000 nM | – | CNCC[C@@H](Oc1ccc(CN2CCN(C)c3ncccc3C2=O)cc1)c1cccc(F)c1 [Example 150, (R)-(4-(1-(3-fluorophenyl)-3-(methylamino)propoxy)benzyl)-1-methyl-1,2,3,4-tetrahydro-5H-pyrido[2,3-e][1,4]diazepin-5-one]

Second part, the compound before the results:

Structure (SMILES) | Ki ([1]; Table 1) | Ki ([1]; Table 2, dual compounds) | Ki [2]
CNCCC(Oc1cccc(CN2CCN(C)c3ccccc3C2)c1)c1cccs1 (centres unmarked) [Example 1, N-methyl-3-(3-((1-methyl-1,2,3,5-tetrahydro-4H-benzo[e][1,4]diazepin-4-yl)methyl)phenoxy)-3-(thiophen-2-yl)propan-1-amine] | 100 to 500 nM | 100 to 500 nM | 500 to 1000 nM
CNCCC(Oc1cccc(C(=O)N2CCCN(C)CC2)c1)c1ccccc1 (centres unmarked) [Example 3, (4-Methyl-1,4-diazepan-1-yl)(3-(3-(methylamino)-1-phenylpropoxy)phenyl)methanone] | 500 to 3000 nM | 500 to 3000 nM | 100 to 500 nM
CNCCC(OCc1cccc(N2CCCN(C)CC2)c1)c1ccccc1 (centres unmarked) [Example 6, N-methyl-3-((3-(4-methyl-1,4-diazepan-1-yl)benzyl)oxy)-3-phenylpropan-1-amine] | 500 to 3000 nM | 500 to 3000 nM | 100 to 500 nM
CNCCC(OCc1cccc(N2CCN(C)c3ccccc3C2)c1)c1ccccc1 (centres unmarked) [Example 7, N-methyl-3-((3-(1-methyl-1,2,3,5-tetrahydro-4H-benzo[e][1,4]diazepin-4-yl)benzyl)oxy)-3-phenylpropan-1-amine] | 500 to 3000 nM | 500 to 3000 nM | 500 to 1000 nM
CNCCC(OCc1cccc(N2CCCN(C)CC2)c1)c1cccs1 (centres unmarked) [Example 10, N-methyl-3-((3-(4-methyl-1,4-diazepan-1-yl)benzyl)oxy)-3-(thiophen-2-yl)propan-1-amine] | 500 to 3000 nM | 500 to 3000 nM | 500 to 1000 nM
CCNc1ccc2c(n1)N(C)CCN(c1cccc(COC(CCNC)c3ccccc3)c1)C2=O (centres unmarked) [Example 29, 8-(Ethylamino)-1-methyl-4-(3-((3-(methylamino)-1-phenylpropoxy)methyl)phenyl)-1,2,3,4-tetrahydro-5H-pyrido[2,3-e][1,4]diazepin-5-one] | 500 to 3000 nM | 500 to 3000 nM | 500 to 1000 nM
CNCCC(OCc1cccc(N2CCN(C)CCC2=O)c1)c1ccccc1 (centres unmarked) [Example 34, 1-Methyl-4-(3-((3-(methylamino)-1-phenylpropoxy)methyl)phenyl)-1,4-diazepan-5-one] | 500 to 3000 nM | 500 to 3000 nM | 100 to 500 nM
CNCCC(OCc1cccc(N2CCNCCC2=O)c1)c1ccccc1 (centres unmarked) [Example 37, 4-(3-((3-(Methylamino)-1-phenylpropoxy)methyl)phenyl)-1,4-diazepan-5-one] | 500 to 3000 nM | 500 to 3000 nM | 100 to 500 nM
CCN1CCC(=O)N(c2cccc(OC(CCNC)c3cccs3)c2)CC1 (centres unmarked) [Example 58, 1-Ethyl-4-(3-(3-(methylamino)-1-(thiophen-2-yl)propoxy)phenyl)-1,4-diazepan-5-one] | 500 to 3000 nM | 500 to 3000 nM | 100 to 500 nM
CNCCC(Oc1cccc(N2CCN(C(C)C)CCC2=O)c1)c1cccs1 (centres unmarked) [Example 60, 1-Isopropyl-4-(3-(3-(methylamino)-1-(thiophen-2-yl)propoxy)phenyl)-1,4-diazepan-5-one] | 500 to 3000 nM | 500 to 3000 nM | 500 to 1000 nM
CNCC[C@H](Oc1cccc(N2CCN(C(C)C)CCC2=O)c1)c1cccs1 [Example 66, (S)-1-isopropyl-4-(3-(3-(methylamino)-1-(thiophen-2-yl)propoxy)phenyl)-1,4-diazepan-5-one] | 500 to 3000 nM | 500 to 3000 nM | 100 to 500 nM
CNCC[C@@H](Oc1cccc(N2CCN(C(C)C)CCC2=O)c1)c1cccs1 [Example 67, (R)-1-isopropyl-4-(3-(3-(methylamino)-1-(thiophen-2-yl)propoxy)phenyl)-1,4-diazepan-5-one] | 100 to 500 nM | 100 to 500 nM | 500 to 1000 nM
CNCCC(Oc1cccc(N2CCN(C)c3nc(N(C)C)ccc3C2=O)c1)c1cccs1 (centres unmarked) [Example 70, 8-(Dimethylamino)-1-methyl-4-(3-(3-(methylamino)-1-(thiophen-2-yl)propoxy)phenyl)-1,2,3,4-tetrahydro-5H-pyrido[2,3-e][1,4]diazepin-5-one] | 500 to 3000 nM | 500 to 3000 nM | 100 to 500 nM
